From patent US12030908B2, “Antimicrobial compounds, compositions, and uses thereof” (Lakewood Amedex, Inc., priority 2017, dated 2024)
“And” between values parts separate entries of the source, which are not always exact repeats. Equal values may be shown once. “Also recorded” adds a separate entry of the source.

Legend:
[1] = tested on: Citrobacter species; experiment: MIC at pH 3.5, CLSI, Mueller-Hinton broth; format: cell-based; conditions: 5 isolates
Method: (§1) Bacterial strains evaluated in this study include Escherichia coli, Klebsiella spp, Serratia marcescens, Proteus mirabilis/vulgaris, Citrobacter spp, Providencia spp, Morganella morganii, Pseudomonas aeruginosa, Staphylococcus aureus (MRSA only), and Enterococcus faecalis. Nu-8 test solutions are adjusted to pH 3.5 with citric acid, and […] is evaluated per the CLSI methods in Mueller-Hinton broth supplemented accordingly to facilitate growth of specific strains.

[2] = tested on: Enterococcus faecalis; experiment: MIC at pH 3.5, CLSI, Mueller-Hinton broth; format: cell-based; conditions: 5 isolates
Method: as §1

[3] = tested on: Escherichia coli; experiment: MIC at pH 3.5, CLSI, Mueller-Hinton broth; format: cell-based; conditions: 5 isolates
Method: as §1

[4] = tested on: Klebsiella pneumoniae; experiment: MIC at pH 3.5, CLSI, Mueller-Hinton broth; format: cell-based; conditions: 5 isolates
Method: as §1

[5] = tested on: Morganella morganii; experiment: MIC at pH 3.5, CLSI, Mueller-Hinton broth; format: cell-based; conditions: 5 isolates
Method: as §1

[6] = tested on: Proteus mirabilis/vulgaris; experiment: MIC at pH 3.5, CLSI, Mueller-Hinton broth; format: cell-based; conditions: 5 isolates
Method: as §1

[7] = tested on: Providencia species; experiment: MIC at pH 3.5, CLSI, Mueller-Hinton broth; format: cell-based; conditions: 5 isolates
Method: as §1

[8] = tested on: Pseudomonas aeruginosa; experiment: MIC at pH 3.5, CLSI, Mueller-Hinton broth; format: cell-based; conditions: 20 isolates
Method: as §1

[9] = tested on: Serratia marcescens; experiment: MIC at pH 3.5, CLSI, Mueller-Hinton broth; format: cell-based; conditions: 5 isolates
Method: as §1

[10] = tested on: Staphylococcus aureus (MRSA); experiment: MIC at pH 3.5, CLSI, Mueller-Hinton broth; format: cell-based; conditions: 20 isolates
Method: as §1

[11] = tested on: E. coli; experiment: MIC in lysogeny broth (LB) at pH 4; format: cell-based
Method: (§2) The MICs are also determined using lysogeny broth (LB) at pH 4 as the growth medium. Under these conditions, Nu-8 is active against E. coli and P. aeruginosa with MICs of 54 and 27 mg/mL, respectively.

[12] = tested on: P. aeruginosa; experiment: MIC in lysogeny broth (LB) at pH 4; format: cell-based
Method: as §2

[13] = tested on: Acinetobacter baumannii (ATCC 19606); experiment: Neutropenic lung infection model in mice, lung bacterial burden (Example 25); format: in vivo, BALB/c mice; conditions: for antibacterial effect on A. baumannii vs day 3 vehicle control: 10% solution aerosol once daily, p<0.05; for Log10 CFU/g lung Mean ± SD / Log10 CFU/g lung: Nu-8 (10%), aerosol, 2 h post end of treatment; for Log10 CFU/g lung Mean ± SD: group mean; for Log10 CFU/g lung: individual animals
Method: Neutropenic, BALB/c female mice, all of which were from 6 to 8 weeks of age, were infected intranasally with ˜2×10^7 CFU/lung Acinetobacter baumannii (ATCC 19606). Twenty-four hours after infection; animals were treated by aerosol route with vehicle or Nu-8 (10% solution), once daily for one, three, and five days. Following treatment for 1, 3, and 5 days, animals were terminated, and lung tissues were collected to determine the bacterial load.
The mice were separated into cohorts in accordance with Table 26.
On day −4 (four days before the date of infection), each mouse was dosed with a single intraperitoneal injection of cyclophosphamide equivalent to 150 mg/kg and returned to its cage. On day −1 (one day before infection) each mouse received a dose equivalent to 100 mg/kg of cyclophosphamide.
On day −1, an aliquot from glycerol stocks of Acinetobacter baumannii (ATCC19606) was thawed, inoculated into fresh Casein Soybean Digest Broth (CSDB) and incubated overnight at 37° C.
On the day of infection (Day 0), the overnight culture was checked, centrifuged and the cells were pelleted and resuspended in sterile normal saline to obtain approximately 10^9 CFU/ml Acinetobacter baumannii, which was used for infection. The inoculum was serially diluted ten-fold in sterile CSDB and 0.05 ml of six dilutions was plated onto CSD Agar plates to determine the viable count (CFU/ml) of inoculum.
Animals were divided into different groups as specified in the experimental design (Table 26). Infections were conducted in a biological safety cabinet, with appropriate personnel protection. Mice were placed into an induction chamber and anesthesia was induced by exposing the animals to 3%-5% Isoflurane in an oxygen flow set at approximately 1 liter per minute (LPM). Once the animals were in a sufficiently deep plane of anesthesia, they were removed and infected. Infection was done by instilling 0.02 ml (containing ˜1×10^9 CFU/ml) of the inoculum; 10 μl was instilled into each nostril of the anesthetized animal intra-nasally using a 10 μl pipette (˜2×10^7 CFU/animal). A gentle shaking/mixing of inoculum between two animals was followed for uniform distribution.
The vehicle used for the test compound was saline (0.9% NaCl adjusted to pH 3.5 with citric acid). To make 10% Nu-8 solution, 15 g of compound was weighed and dissolved in 145 ml of 0.9% NaCl; pH of solution was adjusted to 3.5 by adding 2.4 ml of citric acid solution and to this solution, 2.6 ml of 0.9% NaCl solution was added to make up the volume to 150 ml. The same procedure was followed on day 2, 3, 4 and 5.
Treatment was initiated twenty-four hours post infection. Test formulations were administered by aerosol route with nose-only apparatus connected to a nebulizer (Omron Ne-C28 Compressor Nebulizer with a volume capacity of 15 ml, Particle size 3 μm, nebulization rate: 0.5 ml/min, and Aerosol output rate: 0.09 ml/min). The formulation prepared previously was placed into the nebulizer fluid cup; animals were placed in the nose-only apparatus and the entire system was placed inside a Class II Biosafety Cabinet. Animals received nebulization for 20 min, followed by a 30-minute rest and then an additional 20-minute exposure at the same dose concentration (the flow rate and percentage of test material available at the inhalation port was 16% of the initial concentration in the nebulizer if the test compound is in solution).
Groups of animals were euthanized at 2 h post treatment, as specified in the experimental design, by an overdose of CO2 in an appropriate exposure chamber.
The euthanized animals were dipped into 70% ethanol for surface decontamination. Lungs were aseptically excised, weighed, placed in a 2 ml centrifuge tube containing 1 ml of sterile CSDB broth, and homogenized (Omni Tip (220THB handheld)). Serial ten-fold dilutions of the lung homogenates were prepared in sterile CSDB broth and 0.05 ml of four dilutions for each lung was plated onto CSDA agar plates. […]

[14] = Body weight in the Acinetobacter baumannii lung infection model (Example 25); format: in vivo, BALB/c mice
[15] = tested on: Acinetobacter baumannii (ATCC 19606); experiment: Clinical signs in the Acinetobacter baumannii lung infection model (Example 25); format: in vivo, BALB/c mice; conditions: treated groups vs control mice
Source text: There was a >3 Log10) CFU/g lung decrease following treatment for 5 days when compared to the vehicle on day 1.

[16] = Nu-8 (10%), 3 doses, once daily for 3 days
[17] = Nu-8 (10%), 5 doses, once daily for 5 days

CCCCOP(=O)(O)OC[C@H]1O[C@@H](n2ccc(N)nc2=O)C[C@@H]1OP(=O)(O)OCCCC [Nu-8, sodium ((2R,3S,5R)-5-(4-amino-2-oxopyrimidin-1(2H)-yl)-3-((butoxyoxidophosphor-yl)oxy)tetrahydrofuran-2-yl)methyl butyl phosphate]
Nu-8 MIC (mg/mL) at pH 3.5 [1]: 18.75-37.5 mg/mL | Nu-8 MIC (mg/mL) at pH 3.5 [2]: 4.69-18.75 mg/mL | Nu-8 MIC (mg/mL) at pH 3.5 [3]: 37.5 mg/mL | Nu-8 MIC (mg/mL) at pH 3.5 [4]: 37.5-75 mg/mL | Nu-8 MIC (mg/mL) at pH 3.5 [5]: 18.75 mg/mL | Nu-8 MIC (mg/mL) at pH 3.5 [6]: 4.69-18.75 mg/mL | Nu-8 MIC (mg/mL) at pH 3.5 [7]: 9.38-37.5 mg/mL | MIC50 at pH 3.5 [8]: 18.75 mg/mL | MIC90 at pH 3.5 [8]: 18.75 mg/mL | Nu-8 MIC (mg/mL) at pH 3.5 ([8]; MIC range): 9.38-18.75 mg/mL | Nu-8 MIC (mg/mL) at pH 3.5 [9]: 37.5-75 mg/mL | MIC50 at pH 3.5 [10]: 18.75 mg/mL | MIC90 at pH 3.5 [10]: 37.5 mg/mL | Nu-8 MIC (mg/mL) at pH 3.5 ([10]; MIC range): 9.38-37.5 mg/mL | MIC [11]: 54 mg/mL | MIC [12]: 27 mg/mL | antibacterial effect on A. baumannii vs day 3 vehicle control ([13]; day 3): significant antibacterial effect; also recorded: significant antibacterial activity | antibacterial effect on A. baumannii vs day 3 vehicle control ([13]; day 5): significant antibacterial effect; also recorded: significant antibacterial activity | activity vs vehicle control on day 1 ([13]; 10% solution aerosol, day 1, p>0.05): No significant activity | Log10 CFU/g lung Mean ± SD ([13]; 3 doses, once daily for 3 days, p < 0.05 vs corresponding vehicle control): 4.01 ± 0.72 Log10 CFU/g lung | Log10 CFU/g lung ([13]; 3 doses, once daily for 3 days): 4.75 Log10 CFU/g lung and 3.02 Log10 CFU/g lung and 4.34 Log10 CFU/g lung and 3.19 Log10 CFU/g lung and 4.29 Log10 CFU/g lung and 4.46 Log10 CFU/g lung | Log10 CFU/g lung Mean ± SD ([13]; 5 doses, once daily for 5 days, p < 0.05 vs day 3 vehicle control): 2.69 ± 0.16 Log10 CFU/g lung | Log10 CFU/g lung ([13]; 5 doses, once daily for 5 days): 2.76 Log10 CFU/g lung and 2.51 Log10 CFU/g lung and 2.71 Log10 CFU/g lung and 2.62 Log10 CFU/g lung and 2.96 Log10 CFU/g lung and 2.60 Log10 CFU/g lung | Log10 CFU/g lung Mean ± SD ([13]; single dose): 5.67 ± 0.47 Log10 CFU/g lung | Log10 CFU/g lung ([13]; single dose): 5.51 Log10 CFU/g lung and 6.03 Log10 CFU/g lung and 5.54 Log10 CFU/g lung and 6.30 Log10 CFU/g lung and 5.72 Log10 CFU/g lung and 4.93 Log10 CFU/g lung | decrease in lung burden compared to the vehicle on day 1 ([13]; following treatment for 5 days): > 3 Log10) CFU/g lung | Body Weight (g) Mean ± SD Day 0 [14, 16]: 25.0 ± 0.6 g | Body Weight (g) Mean ± SD Day 1 [14, 16]: 24.3 ± 0.5 g | Body Weight (g) Mean ± SD Day 3 [14, 16]: 23.7 ± 0.5 g | Body Weight (g) Mean ± SD Day 0 [14, 17]: 24.8 ± 0.8 g | Body Weight (g) Mean ± SD Day 1 [14, 17]: 24.0 ± 0.6 g | Body Weight (g) Mean ± SD Day 2 ([14]; Nu-8 (10%), 5 doses, once daily for 5 days, Day 2): 23.3 ± 0.5 g | Body Weight (g) Mean ± SD Day 3 [14, 17]: 23.2 ± 0.8 g | Body Weight (g) Mean ± SD Day 4 ([14]; Nu-8 (10%), 5 doses, once daily for 5 days, Day 4): 23.3 ± 1.0 g | Body Weight (g) Mean ± SD Day 5 ([14]; Nu-8 (10%), 5 doses, once daily for 5 days, Day 5): 24.0 ± 0.6 g | Body Weight (g) Mean ± SD Day 0 ([14]; Nu-8 (10%), single dose): 24.8 ± 0.8 g | Body Weight (g) Mean ± SD Day 1 ([14]; Nu-8 (10%), single dose): 24.0 ± 0.9 g | change in mean body weights ([14]; vehicle and treatment groups): Decreases in mean body weights were observed | piloerection, loss of grooming and respiratory symptoms [15]: decreased piloerection, nasal discharge and gasping symptoms; also recorded: a marked decrease was observed in treated groups
